Laboratory results from ChEMBL document CHEMBL1134253, “HIV Rev peptides conjugated with peptide nucleic acids and their efficient binding to RRE RNA” (Bioorg Med Chem Lett, 2001).

Legend:
[1] = test system: Rev responsive element (RRE) RNA; assay: Ratio of the dissociation constant between Rev37-50 and the PNA-peptide; assay type: nucleic-acid assay
[2] = molecular target: Rev responsive element (RRE) RNA; assay: Dissociation constant of compound with Rev-responsive element (RRE) IIB RNA was determined by the competition assay; assay type: nucleic-acid assay

| Ratio [1] | Kd [2] | Structure (SMILES) |
| --- | --- | --- |
| 5.4 | 16 nM | C[C@H](NC(=O)CN(CCNC(=O)CN(CCNC(=O)CCC(=O)O)C(=O)Cn1cnc2c(=O)[nH]c(N)nc21)C(=O)Cn1ccc(N)nc1=O)C(=O)N[C@@H](CCCNC(=N)N)C(=O)N[C@@H](CCCNC(=N)N)C(=O)N[C@@H](CC(N)=O)C(=O)N[C@@H](CCCNC(=N)N)C(=O)N[C@@H](CCCNC(=N)N)C(=O)N[C@@H](CCCNC(=N)N)C(=O)N[C@@H](CCCNC(=N)N)C(=O)N[C@@H](Cc1c[nH]c2ccccc12)C(=O)N[C@@H](CCCNC(=N)N)C(=O)N[C@@H](CCC(=O)O)C(=O)N[C@@H](CCCNC(=N)N)C(=O)N[C@@H](CCC(N)=O)C(=O)N[C@H](CCCNC(=N)N)C(N)=O |
| 9 | 9.6 nM | C[C@H](NC(=O)CN(CCNC(=O)CN(CCNC(=O)CN(CCNC(=O)CCC(=O)O)C(=O)Cn1ccc(N)nc1=O)C(=O)Cn1cnc2c(=O)[nH]c(N)nc21)C(=O)Cn1ccc(N)nc1=O)C(=O)N[C@@H](CCCNC(=N)N)C(=O)N[C@@H](CCCNC(=N)N)C(=O)N[C@@H](CC(N)=O)C(=O)N[C@@H](CCCNC(=N)N)C(=O)N[C@@H](CCCNC(=N)N)C(=O)N[C@@H](CCCNC(=N)N)C(=O)N[C@@H](CCCNC(=N)N)C(=O)N[C@@H](Cc1c[nH]c2ccccc12)C(=O)N[C@@H](CCCNC(=N)N)C(=O)N[C@@H](CCC(=O)O)C(=O)N[C@@H](CCCNC(=N)N)C(=O)N[C@@H](CCC(N)=O)C(=O)N[C@H](CCCNC(=N)N)C(N)=O |
| 16 | 5.4 nM | Cc1cn(CC(=O)N(CCNC(=O)CCC(=O)O)CC(=O)NCCN(CC(=O)NCCN(CC(=O)NCCN(CC(=O)NCCN(CC(=O)N[C@@H](C)C(=O)N[C@@H](CCCNC(=N)N)C(=O)N[C@@H](CCCNC(=N)N)C(=O)N[C@@H](CC(N)=O)C(=O)N[C@@H](CCCNC(=N)N)C(=O)N[C@@H](CCCNC(=N)N)C(=O)N[C@@H](CCCNC(=N)N)C(=O)N[C@@H](CCCNC(=N)N)C(=O)N[C@@H](Cc2c[nH]c3ccccc23)C(=O)N[C@@H](CCCNC(=N)N)C(=O)N[C@@H](CCC(=O)O)C(=O)N[C@@H](CCCNC(=N)N)C(=O)N[C@@H](CCC(N)=O)C(=O)N[C@H](CCCNC(=N)N)C(N)=O)C(=O)Cn2ccc(N)nc2=O)C(=O)Cn2cnc3c(=O)[nH]c(N)nc32)C(=O)Cn2ccc(N)nc2=O)C(=O)Cn2cnc3c(=O)[nH]c(N)nc32)c(=O)[nH]c1=O |
| 5.1 | 17 nM | Cc1cn(CC(=O)N(CCNC(=O)CCC(=O)O)CC(=O)NCCN(CC(=O)NCCN(CC(=O)N[C@@H](C)C(=O)N[C@@H](CCCNC(=N)N)C(=O)N[C@@H](CCCNC(=N)N)C(=O)N[C@@H](CC(N)=O)C(=O)N[C@@H](CCCNC(=N)N)C(=O)N[C@@H](CCCNC(=N)N)C(=O)N[C@@H](CCCNC(=N)N)C(=O)N[C@@H](CCCNC(=N)N)C(=O)N[C@@H](Cc2c[nH]c3ccccc23)C(=O)N[C@@H](CCCNC(=N)N)C(=O)N[C@@H](CCC(=O)O)C(=O)N[C@@H](CCCNC(=N)N)C(=O)N[C@@H](CCC(N)=O)C(=O)N[C@H](CCCNC(=N)N)C(N)=O)C(=O)Cn2ccc(N)nc2=O)C(=O)Cn2cnc3c(=O)[nH]c(N)nc32)c(=O)[nH]c1=O |
| 5.7 | 15 nM | C[C@H](NC(=O)CN(CCNC(=O)CN(CCNC(=O)CN(CCNC(=O)CCC(=O)O)C(=O)Cn1cnc2c(N)ncnc21)C(=O)Cn1cnc2c(=O)[nH]c(N)nc21)C(=O)Cn1ccc(N)nc1=O)C(=O)N[C@@H](CCCNC(=N)N)C(=O)N[C@@H](CCCNC(=N)N)C(=O)N[C@@H](CC(N)=O)C(=O)N[C@@H](CCCNC(=N)N)C(=O)N[C@@H](CCCNC(=N)N)C(=O)N[C@@H](CCCNC(=N)N)C(=O)N[C@@H](CCCNC(=N)N)C(=O)N[C@@H](Cc1c[nH]c2ccccc12)C(=O)N[C@@H](CCCNC(=N)N)C(=O)N[C@@H](CCC(=O)O)C(=O)N[C@@H](CCCNC(=N)N)C(=O)N[C@@H](CCC(N)=O)C(=O)N[C@H](CCCNC(=N)N)C(N)=O |
|  | > 100000 nM | CC(=O)NCCN(CC(=O)NCCN(CC(=O)NCCN(CC(=O)NCCN(CC(=O)NCCN(CC(=O)N[C@@H](CCCCN)C(=O)CN)C(=O)Cn1ccc(N)nc1=O)C(=O)Cn1cnc2c(O)nc(N)nc21)C(=O)Cn1ccc(N)nc1=O)C(=O)Cn1cnc2c(O)nc(N)nc21)C(=O)Cn1cc(C)c(=O)[nH]c1=O |
